Read-outs that look alike come from different tables or passages of the source.
Tests used:
[1] = tested on: Jeko, Mino and Rec-1 cells; test: cells; format: cell-based; conditions: 72 h, read-out: decrease in cell viability
MCL-Rec1 = test: Mantle Cell Lymphoma Assay: cytotoxicity, Rec-1; format: cell-based; conditions: 72 hrs; for viability at 0.004 µM / viability at 0.037 µM / viability at 0.11 µM / viability at 0.33 µM / viability at 1 µM / viability at 3 µM: Homo sapiens, read-out: Cell Viability (%)
Description: (§1) MCL cell lines Jeko, Mino, and Rec-1 were provided by American Type Culture Collection: The Bioresource Center (Manassas, Va.). […] Carlsbad, Calif.) in T-75 culture flasks. Cell concentration was maintained between 2 to 3×10^5 cells/mL. Early passage cells (passages 2-4) were used for all experiments. Ficoll-Histopaque density sedimentation (Sigma Aldrich) was used for separation of debris and purification of cell lines prior to experiments. […] The cytotoxic effect of test compounds on the MCL-cell lines was assessed by measuring cell concentration and cell viability using a Beckman Coulter Vi-Cell Counter. Controls and treated cells were harvested and counted at day 3.

Bmi-1 [2] = test: Cell Model Assay: Bmi-1 expression in HT1080; format: cell-based, human; conditions: HT1080 (fibrosarcoma)
Experimental: (§2) Using assay conditions known to those skilled in the art, the ability of the compounds described herein to reduce Bmi-1 expression in HT1080 (fibrosarcoma), U87-MG (glioblastoma), T98G (glioblastoma), K562 (chronic myelogenous leukemia) and KG1 (acute myelogenous leukemia) cell lines was tested (at test compound concentrations calculated from the ELISA assay data shown in Example 1) compared to puromycin as a control to provide the EC50 values shown in Table 2. The term “ND” means that data was not determined.

MCL-Mino = test: Mantle Cell Lymphoma Assay: cytotoxicity, Mino; format: cell-based; conditions: MCL-Mino, 72 hrs; for viability at 0.004 µM / viability at 0.037 µM / viability at 0.11 µM / viability at 0.33 µM / viability at 1 µM / viability at 3 µM: Homo sapiens, read-out: Cell Viability (%)
Description: as §1

Bmi-1 [3] = test: Cell Model Assay: Bmi-1 expression in U87-MG; format: cell-based; conditions: U87-MG (glioblastoma)
Experimental: as §2

Bmi-1 [4] = test: Cell Model Assay: Bmi-1 expression in T98G; format: cell-based; conditions: T98G (glioblastoma)
Experimental: as §2

Bmi-1 [5] = test: Sandwich ELISA Assay (Bmi-1 ELISA in HT-1080 cells); format: cell-based, human
Procedure, shortened: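 HT-1080 cells (8000/well) were treated with compounds in 0.5% final DMSO for 40-48 h at 37°C and then lysed. Bmi-1 in lysates was measured by sandwich ELISA: overnight capture at 4°C on mouse monoclonal, rabbit anti-Bmi-1 detection, HRP anti-rabbit, TMB. OD450 was read with an OD570 reference against a recombinant GST-Bmi-1 standard curve (0-8000 pg/mL).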

Structure (SMILES)	viability at 0.004 µM (MCL-Rec1; MCL-Rec1, 0.004 μM) [%]	viability at 0.037 µM (MCL-Rec1; MCL-Rec1, 0.037 μM) [%]	viability at 0.11 µM (MCL-Rec1; MCL-Rec1, 0.11 μM) [%]	viability at 0.33 µM (MCL-Rec1; MCL-Rec1, 0.33 μM) [%]	viability at 1 µM (MCL-Rec1; MCL-Rec1, 1 μM) [%]	viability at 3 µM (MCL-Rec1; MCL-Rec1, 3 μM) [%]	Cell Concentration (×10^6) (MCL-Rec1; MCL-Rec1, 0.004 μM)	Cell Concentration (×10^6) (MCL-Rec1; MCL-Rec1, 0.037 μM)	Cell Concentration (×10^6) (MCL-Rec1; MCL-Rec1, 0.11 μM)	Cell Concentration (×10^6) (MCL-Rec1; MCL-Rec1, 0.33 μM)	Cell Concentration (×10^6) (MCL-Rec1; MCL-Rec1, 1 μM)	Cell Concentration (×10^6) (MCL-Rec1; MCL-Rec1, 3 μM)	EC50 (Bmi-1 [2]) [nM]	viability at 0.004 µM (MCL-Mino; 0.004 μM) [%]	viability at 0.037 µM (MCL-Mino; 0.037 μM) [%]	viability at 0.11 µM (MCL-Mino; 0.11 μM) [%]	viability at 0.33 µM (MCL-Mino; 0.33 μM) [%]	viability at 1 µM (MCL-Mino; 1 μM) [%]	viability at 3 µM (MCL-Mino; 3 μM) [%]	Cell Concentration (×10^6) (MCL-Mino; 0.004 μM)	also measured
COc1cc(Br)c(Nc2nc(-c3c(C)nc4ncccn34)cs2)c(Br)c1 [Cpd 1, N-(2,6-dibromo-4-methoxyphenyl)-4-(2-methylimidazo[1,2-a]pyrimidin-3-yl)thiazol-2-amine]	91.9 ± 0.5	91.7 ± 0.4	91.7 ± 0.2	90.9 ± 0.2	85 ± 0.6	56.3 ± 0.4	1.66 ± 0.12 ×10^6	1.74 ± 0.05 ×10^6	1.73 ± 0.02 ×10^6	1.66 ± 0.01 ×10^6	0.96 ± 0.08 ×10^6	0.32 ± 0.01 ×10^6	390	94.7 ± 0.2	95.1 ± 0.2	94.6 ± 0.2	94.5 ± 0.3	89.4 ± 0.4	59.3 ± 0.5	1.53 ± 0.07 ×10^6	cytotoxicity at 0.08 µM ([1]; Jeko, Mino and Rec-1 cells, 80 nM, 75 nM and 80 nM, after 3 days of treatment): 70 to 90%; Cell Concentration (×10^6) (MCL-Mino; 0.037 μM): 1.53 ± 0.05 ×10^6; Cell Concentration (×10^6) (MCL-Mino; 0.11 μM): 1.55 ± 0.02 ×10^6; Cell Concentration (×10^6) (MCL-Mino; 0.33 μM): 1.50 ± 0.02 ×10^6; Cell Concentration (×10^6) (MCL-Mino; 1 μM): 0.74 ± 0.02 ×10^6; Cell Concentration (×10^6) (MCL-Mino; 3 μM): 0.20 ± 0.01 ×10^6; EC50 (Bmi-1 [3]): 420 nM; EC50 (Bmi-1 [4]): 220 nM; IC50 (Bmi-1 [5]): < 500 nM
COc1ccc(Nc2nc(-c3c(C)nc4ncccn34)cs2)cc1 [Cpd 14, N-(4-methoxyphenyl)-4-(2-methylimidazo[1,2-a]pyrimidin-3-yl)thiazol-2-amine]	88.1 ± 0.88	84.5 ± 0.66	34.4 ± 3.25	8.93 ± 0.15	9.83 ± 0.33	9.5 ± 0.35	1.52 ± 0.02 ×10^6	1.22 ± 0.02 ×10^6	0.24 ± 0.03 ×10^6	0.05 ± 0.00 ×10^6	0.05 ± 0.00 ×10^6	0.05 ± 0.00 ×10^6	3	92.27 ± 0.38	64.5 ± 16.6	40.6 ± 1.91	18.1 ± 1.78	13.5 ± 1.85	14.1 ± 0.28	1.26 ± 0.01 ×10^6	cytotoxicity at 0.08 µM [1]: 70 to 90%; Cell Concentration (×10^6) (MCL-Mino; 0.037 μM): 0.66 ± 0.24 ×10^6; Cell Concentration (×10^6) (MCL-Mino; 0.11 μM): 0.23 ± 0.01 ×10^6; Cell Concentration (×10^6) (MCL-Mino; 0.33 μM): 0.06 ± 0.01 ×10^6; Cell Concentration (×10^6) (MCL-Mino; 1 μM): 0.05 ± 0.01 ×10^6; Cell Concentration (×10^6) (MCL-Mino; 3 μM): 0.05 ± 0.00 ×10^6; EC50 (Bmi-1 [3]): 8 nM; EC50 (Bmi-1 [4]): < 4 nM; IC50 (Bmi-1 [5]): < 500 nM
